For 66 compounds, Potency results are on record in ChEMBL document CHEMBL1122453, “Structure-activity relationships in the antiinflammatory steroids: a pattern-recognition approach” (1983).

For one test, the species on record is Rattus norvegicus. The experiment in a line: Anti-inflammatory effect in rat granuloma assay, activity relative to hydrocortisone and hydrocortisone 21-acetate. It is filed as functional.
The species named for the next test is Homo sapiens. The experiment in a line: Potency relative to fluocinolone 16,17-acetonide in the human vasoconstictor test. The format is functional.

In turn, `CC(=O)OCC(=O)[C@@]1(O)CCC2C3CCC4=CC(=O)[C@H](C)CC4(C)C3C(O)CC21C` (some centres undefined) returned a Potency in the test listed under Rattus norvegicus of 4.5.

`CC12C=CC(=O)C=C1[C@@H](Cl)CC1C2C(O)CC2(C)C1CC[C@]2(O)C(=O)CO` (some centres undefined) yielded a Potency in the test listed under Rattus norvegicus of 14.

Regarding `CC(=O)OCC(=O)C1CCC2C3CCC4=CC(=O)CCC4(C)C3C(O)CC12C` (centres undefined), the Potency in the test filed under Rattus norvegicus was found to be 0.3. Same read-out and setting: the result for `CC(=O)OCC(=O)[C@@]1(O)[C@H](C)CC2C3C[C@H](F)C4=CC(=O)CCC4(C)C3C(O)CC21C` (some centres undefined) reads 5; that for `CC(=O)OCC(=O)[C@@]1(O)CCC2C3C[C@H](Cl)C4=CC(=O)CCC4(C)[C@@]3(F)C(=O)CC21C` (some centres undefined), 8; that for `CC12C=CC(=O)C=C1[C@@H](Cl)CC1C3CC(O)[C@](O)(C(=O)CO)C3(C)CC(O)[C@@]12F` (some centres undefined), 400. Turning to `C[C@H]1C[C@H]2[C@@H]3CCC4=CC(=O)C=C[C@]4(C)[C@@]3(F)[C@@H](O)C[C@]2(C)[C@@]1(O)C(=O)CO` [BETAMETHASONE], the Potency in the test listed under Homo sapiens was 0.8; in the test listed under Rattus norvegicus it was 35.8. As for `CC(=O)OCC(=O)[C@@]1(O)CCC2C3C[C@H](Cl)C4=CC(=O)CCC4(C)C3C(=O)CC21C` (some centres undefined), the Potency in the test listed under Rattus norvegicus is recorded as 1. The same measure, in the same setting: with `C[C@H]1C[C@H]2[C@@H]3CCC4=CC(=O)C=C[C@]4(C)[C@H]3[C@@H](O)C[C@]2(C)[C@@]1(O)C(=O)CO` the figure was 23. For the compound `CC(=O)OCC(=O)C1CCC2C3CCC4=CC(=O)[C@H](C)CC4(C)[C@@]3(F)C(O)CC12C` (some centres undefined), the Potency in the test listed under Rattus norvegicus turned out to be 2.4.

With `CC(=O)OCC(=O)[C@@]1(O)CCC2C3CCC4=CC(=O)CCC4(C)[C@@]3(Cl)C(O)CC21C` (some centres undefined), in the test listed under Rattus norvegicus, the Potency is reported as 3.5.

For `C[C@]12C=CC(=O)C=C1CC[C@H]1[C@@H]3C[C@@H](O)[C@](O)(C(=O)CO)[C@@]3(C)C[C@H](O)[C@@]12F` [TRIAMCINOLONE], the values for the Potency in the test listed under Homo sapiens and in the test listed under Rattus norvegicus were 0.01 and 2.6, respectively.

For `CC12CCC(=O)C=C1[C@@H](F)CC1C3C[C@@H](O)[C@](O)(C(=O)CO)C3(C)CC(O)[C@@]12F` (some centres undefined), the Potency in the test filed under Rattus norvegicus was 15.

For the compound `C[C@@H]1CC2C3CCC4=CC(=O)C=CC4(C)[C@@]3(Cl)C(O)CC2(C)[C@@]1(O)C(=O)CO` (some centres undefined), in the test filed under Rattus norvegicus, the Potency turned out to be 60. `CC(=O)OCC(=O)[C@@]1(O)CC[C@H]2[C@@H]3CCC4=CC(=O)C=C[C@]4(C)[C@H]3C(=O)C[C@@]21C` registered a Potency in the test listed under Rattus norvegicus of 1. The same measure, in the same setting: the result for `CC(=O)OCC(=O)[C@@]1(O)CCC2C3C[C@H](F)C4=CC(=O)C=CC4(C)C3C(O)CC21C` (some centres undefined) reads 20. The same measure, in the same setting: the result for `CC(=O)OCC(=O)[C@@]1(O)[C@H](C)CC2C3C[C@H](F)C4=CC(=O)CCC4(C)[C@@]3(F)C(O)CC21C` (some centres undefined) reads 50; that for `CC(=O)OCC(=O)[C@@]1(O)CCC2C3CCC4=CC(=O)C=CC4(C)[C@@]3(F)C(O)CC21C` (some centres undefined), 14; that for `CC12CCC(=O)C=C1[C@@H](Cl)CC1C3CC(O)[C@](O)(C(=O)CO)C3(C)CC(O)[C@@]12F` (some centres undefined), 50. `C[C@@H]1CC2C3CCC4=CC(=O)CCC4(C)[C@@]3(F)C(O)CC2(C)[C@@]1(O)C(=O)CO` (some centres undefined): the Potency in the test filed under Rattus norvegicus worked out at 36. In the test filed under Rattus norvegicus, `C[C@@H]1CC2(C)C(=CC1=O)CCC1C2C(=O)CC2(C)C1CC[C@]2(O)C(=O)CO` (some centres undefined) returned a Potency of less than 0.07. Turning to `CC(=O)OCC(=O)[C@@]1(O)CCC2C3C[C@H](F)C4=CC(=O)CCC4(C)C3C(O)CC21C` (some centres undefined), the Potency in the test filed under Rattus norvegicus was found to be 10. In the test listed under Rattus norvegicus, `C[C@@H]1C[C@H]2[C@@H]3CCC4=CC(=O)C=C[C@]4(C)[C@H]3[C@@H](O)C[C@]2(C)[C@@]1(O)C(=O)CO` displayed a Potency of 11.3.

Consider `C[C@]12CCC(=O)C=C1CC[C@@H]1[C@@H]2[C@@H](O)C[C@@]2(C)[C@H]1CC[C@]2(O)C(=O)CO` [HYDROCORTISONE], for which the Potency in the test filed under Homo sapiens is listed as less than 1; in the test filed under Rattus norvegicus, 1. Regarding `CC(=O)OCC(=O)[C@@]1(O)CCC2C3C[C@H](F)C4=CC(=O)C=CC4(C)C3C(=O)CC21C` (some centres undefined), the Potency in the test filed under Rattus norvegicus amounted to 20.

In turn, `CC(=O)OCC(=O)C1CCC2C3CCC4=CC(=O)CCC4(C)[C@@]3(F)C(O)CC12C` (some centres undefined) returned a Potency in the test listed under Rattus norvegicus of 2.7.

For `CC(=O)OCC(=O)C1CCC2C3CCC4=CC(=O)CCC4(C)C3C(O)=CC12C` (centres undefined), the Potency in the test listed under Rattus norvegicus is on record as 0.2. The same measure, in the same setting: with `CC(=O)OCC(=O)[C@@]1(O)CCC2C3C[C@H](Cl)C4=CC(=O)C=CC4(C)C3C(=O)CC21C` (some centres undefined) the figure was 4. With `CC12CCC(=O)C=C1[C@@H](F)CC1C2C(O)CC2(C)C1C[C@@H](O)[C@]2(O)C(=O)CO` (some centres undefined), the Potency in the test listed under Rattus norvegicus came out at 5. For the compound `CC(=O)OCC(=O)[C@@]1(O)CCC2C3CCC4=CC(=O)CCC4(C)[C@@]3(F)C(=O)CC21C` (some centres undefined), the Potency in the test listed under Rattus norvegicus was found to be 10. Regarding `CC(=O)OCC(=O)[C@@]1(O)CCC2C3C[C@H](Cl)C4=CC(=O)CCC4(C)C3C(O)CC21C` (some centres undefined), in the test listed under Rattus norvegicus, the Potency came to 11. Same read-out and setting: the result for `CC(=O)OCC(=O)[C@@]12OC(C)(C)O[C@@H]1CC1C3C[C@H](F)C4=CC(=O)C=CC4(C)C3C(O)CC12C` (some centres undefined) reads 20; that for `CC(=O)OCC(=O)[C@@]1(O)CC[C@H]2[C@@H]3CCC4=CC(=O)CC[C@]4(C)[C@H]3C(=O)C[C@@]21C` [CORTISONE ACETATE], 0.3. On the same count and under the same terms, with `C[C@H]1CC2C3CCC4=CC(=O)CCC4(C)[C@@]3(F)C(O)CC2(C)[C@@]1(O)C(=O)CO` (some centres undefined) the figure was 23; with `CC12C=CC(=O)C=C1CCC1C3CC[C@](O)(C(=O)CO)C3(C)CC(O)[C@@]12F` (some centres undefined), 17.7; with `C[C@@H]1CC2C3CCC4=CC(=O)C=CC4(C)[C@@]3(F)C(O)=CC2(C)[C@@]1(O)C(=O)CO` (some centres undefined), 140. Still for that read-out and setting: with `C[C@H]1CC2C3CCC4=CC(=O)C=CC4(C)C3C(=O)CC2(C)[C@@]1(O)C(=O)CO` (some centres undefined) the figure was 26; with `C[C@@H]1CC2C3CCC4=CC(=O)C=CC4(C)C3C(=O)CC2(C)[C@@]1(O)C(=O)CO` (some centres undefined), 13; with `CC(=O)OCC(=O)[C@@]1(O)CCC2C3C[C@H](Cl)C4=CC(=O)C=CC4(C)[C@@]3(F)C(O)CC21C` (some centres undefined), 27. In turn, `CC(=O)OCC(=O)[C@@]1(O)CCC2C3C[C@H](Cl)C4=CC(=O)CCC4(C)[C@@]3(F)C(O)CC21C` (some centres undefined) returned a Potency in the test listed under Rattus norvegicus of 11.

On to `C[C@@H]1CC2C3C[C@H](C)C4=CC(=O)C=CC4(C)[C@@]3(F)C(O)CC2(C)[C@@]1(O)C(=O)CO` (some centres undefined), for which the Potency in the test filed under Rattus norvegicus amounted to 200. In the test listed under Rattus norvegicus, `C[C@]12CCC(=O)C=C1CC[C@@H]1[C@@H]2C(=O)C[C@@]2(C)[C@H]1CC[C@]2(O)C(=O)CO` [CORTISONE] returned a Potency of 0.4. Same read-out and setting: the result for `C[C@@H]1CC2C3CCC4=CC(=O)C=CC4(C)C3[C@@H](O)CC2(C)C1C(=O)CO` (some centres undefined) reads 3; that for `CC(=O)OCC(=O)[C@@]1(O)CCC2C3C[C@H](F)C4=CC(=O)CCC4(C)C3C(=O)CC21C` (some centres undefined), 10. `CC(C)C(=O)OC1(C(=O)CCl)[C@@H](C)CC2C3CCC4=CC(=O)C=CC4(C)[C@]3(F)[C@@H](O)CC21C` (some centres undefined) showed a Potency in the test filed under Homo sapiens of 378. On to `CC(=O)OCC(=O)C1CCC2C3CCC4=CC(=O)[C@H](C)CC4(C)C3C(O)CC12C` (some centres undefined), for which, in the test listed under Rattus norvegicus, the Potency is on record as 0.3. Still for that read-out and setting: with `C[C@@H]1CC2C3CCC4=CC(=O)CCC4(C)C3C(O)CC2(C)[C@@]1(O)C(=O)CO` (some centres undefined) the figure was 1.4. `CCCCC(=O)O[C@]1(C(=O)CO)[C@@H](C)C[C@H]2[C@@H]3CCC4=CC(=O)C=C[C@]4(C)[C@@]3(F)[C@@H](O)C[C@@]21C` [BETAMETHASONE VALERATE] yielded a Potency in the test listed under Homo sapiens of 360. In turn, `C[C@H]1C[C@@H]2[C@H]([C@@H](O)C[C@@]3(C)[C@H]2CC[C@]3(O)C(=O)CO)[C@@]2(C)C=CC(=O)C=C12` (stereo in doubt; 68) [METHYLPREDNISOLONE] displayed a Potency in the test filed under Rattus norvegicus of 200. In turn, `CC1(C)O[C@@H]2CC3C4C[C@H](F)C5=CC(=O)CCC5(C)[C@@]4(F)C(O)CC3(C)[C@]2(C(=O)CO)O1` (some centres undefined) displayed a Potency in the test listed under Rattus norvegicus of 103.

As to `CC(=O)O[C@]1(C(=O)CO)CCC2C3C[C@H](F)C4=CC(=O)C=CC4(C)[C@@]3(F)C(O)CC21C` (some centres undefined), the Potency in the test filed under Homo sapiens is reported as less than 360. Same read-out and setting: with `CCCCC(=O)O[C@]1(C(=O)O)[C@@H](C)CC2C3CCC4=CC(=O)C=CC4(C)C3(F)[C@@H](O)CC21C` (some centres undefined) the figure was less than 1. The compound `CC(=O)[C@H]1CC[C@H]2[C@@H]3C[C@H](C)C4=CC(=O)CC[C@]4(C)[C@H]3[C@@H](O)C[C@]12C` [MEDRYSONE] displayed a Potency in the test filed under Homo sapiens of less than 1. As for `CC(=O)OCC(=O)[C@@]1(O)CCC2C3CCC4=CC(=O)[C@H](C)CC4(C)[C@@]3(F)C(O)CC21C` (some centres undefined), the Potency in the test listed under Rattus norvegicus is 9.

Turning to `CC(=O)OCC(=O)[C@@]1(OC(C)=O)CCC2C3C[C@H](F)C4=CC(=O)C=CC4(C)[C@@]3(F)C(O)CC21C` (some centres undefined), the Potency in the test filed under Homo sapiens worked out at 360. The same measure, in the same setting: the result for `CCCC(=O)O[C@]1(C(=O)CO)C(C)CC2C3CCC4=CC(=O)C=CC4(C)[C@@]3(F)C(O)CC21C` (some centres undefined) reads 168. For the compound `CC(=O)OCC(=O)[C@@]1(O)CCC2C3C[C@H](F)C4=CC(=O)CCC4(C)[C@@]3(F)C(O)CC21C` (some centres undefined), the Potency in the test filed under Rattus norvegicus came out at 50. In turn, `CC(=O)OCC(=O)[C@@]1(O)[C@H](C)CC2C3C[C@H](F)C4=CC(=O)C=CC4(C)[C@@]3(F)C(O)CC21C` (some centres undefined) yielded a Potency in the test listed under Rattus norvegicus of 120. Turning to `CCC(=O)O[C@]1(C(=O)O)[C@@H](C)CC2C3CCC4=CC(=O)C=CC4(C)C3(F)[C@@H](O)CC21C` (some centres undefined), the Potency in the test filed under Homo sapiens is given as less than 1.

`C[C@H]1CC2C3CCC4=CC(=O)CCC4(C)C3C(=O)CC2(C)[C@@]1(O)C(=O)CO` (some centres undefined): the Potency in the test listed under Rattus norvegicus stood at 2.

`C[C@H]1CC2C3CCC4=CC(=O)CCC4(C)C3C(O)CC2(C)[C@@]1(O)C(=O)CO` (some centres undefined) had a Potency in the test filed under Rattus norvegicus of 4. As to `CC(=O)[C@@]1(O)CCC2C3CCC4=CC(=O)CCC4(C)C3C(O)CC21C` (some centres undefined), in the test listed under Homo sapiens, the Potency is on record as 0.4. Consider `CC(=O)OCC(=O)[C@@]1(O)CCC2C3CCC4=CC(=O)C=CC4(C)[C@@]3(Cl)[C@@H](Cl)CC21C` (some centres undefined), for which the Potency in the test listed under Rattus norvegicus was found to be 0.5. For `CC(=O)OCC(=O)[C@@]1(O)CCC2C3C[C@H](F)C4=CC(=O)C=CC4(C)[C@@]3(F)C(O)CC21C` (some centres undefined), the Potency in the test filed under Rattus norvegicus is listed as 200. `CC(=O)OCC(=O)[C@@]12OC(C)(C)O[C@@H]1CC1C3C[C@H](F)C4=CC(=O)CCC4(C)C3C(O)CC12C` (some centres undefined) registered a Potency in the test listed under Rattus norvegicus of 4. Still for that read-out and setting: with `CC(=O)OCC(=O)C1CCC2C3CCC4=CC(=O)[C@H](C)CC4(C)C3C(O)=CC12C` (some centres undefined) the figure was less than 0.01.
